Values after ≈ are worked out from the molar mass of the structure shown.
Key:
Format in all cases: functional
[1] = test system: Streptococcus intermedius; assay: Antimicrobial activity against viridans group Streptococcus intermedius at 0.25 ug/ml by broth microdilution method
Streptococcus sanguinis [2] = assay: Antimicrobial activity against viridans group Streptococcus sanguinis at 0.25 ug/ml by broth microdilution method
Streptococcus salivarius [3] = assay: Antimicrobial activity against viridans group Streptococcus salivarius at 1 ug/ml by broth microdilution method
Streptococcus mitis = assay: Antimicrobial activity against viridans group Streptococcus mitis at 0.12 ug/ml by broth microdilution method
[4] = test system: Corynebacterium amycolatum; assay: Antimicrobial activity against Corynebacterium amycolatum at 0.25 ug/ml by broth microdilution method
[5] = test system: Streptococcus parasanguinis; assay: Antimicrobial activity against viridans group Streptococcus parasanguis at 0.5 ug/ml by broth microdilution method
Aerococcus [6] = assay: Antimicrobial activity against Aerococcus spp. at 2 ug/ml by broth microdilution method
[7] = test system: Enterococcus casseliflavus; assay: Antimicrobial activity against Enterococcus casseliflavus at 1 ug/ml by broth microdilution method
[8] = test system: Corynebacterium pseudodiphtheriticum; assay: Antimicrobial activity against Corynebacterium pseudodiphtheriticum by broth microdilution method
Micrococcus luteus [9] = assay: Antimicrobial activity against Micrococcus luteus at 0.25 ug/ml by broth microdilution method
[10] = test system: Streptococcus vestibularis; assay: Antimicrobial activity against viridans group Streptococcus vestibularis at 0.12 ug/ml by broth microdilution method
Streptococcus anginosus [11] = assay: Antimicrobial activity against viridans group Streptococcus anginosus at <= 0.06 ug/ml by broth microdilution method
Streptococcus salivarius [12] = assay: Antimicrobial activity against viridans group Streptococcus salivarius at 2 ug/ml by broth microdilution method
Corynebacterium striatum = assay: Antimicrobial activity against Corynebacterium striatum by broth microdilution method
Streptococcus gordonii [13] = assay: Antimicrobial activity against viridans group Streptococcus gordonii at 0.12 ug/ml by broth microdilution method
Streptococcus oralis = assay: Antimicrobial activity against viridans group Streptococcus oralis at 0.25 ug/ml by broth microdilution method
Aerococcus [14] = assay: Antimicrobial activity against Aerococcus spp. at 1 ug/ml by broth microdilution method
Corynebacterium jeikeium [15] = assay: Antimicrobial activity against Corynebacterium jeikeium at 0.5 ug/ml by broth microdilution method
Streptococcus anginosus [16] = assay: Antimicrobial activity against viridans group Streptococcus anginosus at 0.12 ug/ml by broth microdilution method
Streptococcus mutans [17] = assay: Antimicrobial activity against viridans group Streptococcus mutans by broth microdilution method
[18] = test system: Streptococcus parasanguinis; assay: Antimicrobial activity against viridans group Streptococcus parasanguis at <= 0.06 ug/ml by broth microdilution method
Streptococcus gordonii [19] = assay: Antimicrobial activity against viridans group Streptococcus gordonii at <= 0.06 ug/ml by broth microdilution method
Corynebacterium jeikeium [20] = assay: Antimicrobial activity against Corynebacterium jeikeium at 1 ug/ml by broth microdilution method
Micrococcus luteus [21] = assay: Antimicrobial activity against Micrococcus luteus by broth microdilution method
Aerococcus [22] = assay: Antimicrobial activity against Aerococcus spp. at 0.5 ug/ml by broth microdilution method
[23] = test system: Corynebacterium pseudodiphtheriticum; assay: Antimicrobial activity against Corynebacterium pseudodiphtheriticum at 1 ug/ml by broth microdilution method
Streptococcus [24] = assay: Antimicrobial activity against beta hemolytic Streptococci group C at <= 0.06 ug/ml by broth microdilution method
Streptococcus [25] = assay: Antimicrobial activity against beta hemolytic Streptococcus group C at <= 0.06 ug/ml by broth microdilution method
Enterococcus gallinarum [26] = assay: Antimicrobial activity against Enterococcus gallinarum at 1 ug/ml by broth microdilution method
Streptococcus anginosus [27] = assay: Antimicrobial activity against viridans group Streptococcus anginosus at 2 ug/ml by broth microdilution method
[28] = test system: Streptococcus intermedius; assay: Antimicrobial activity against viridans group Streptococcus intermedius at 2 ug/ml by broth microdilution method
Enterococcus avium = assay: Antimicrobial activity against Enterococcus avium at 0.5 ug/ml by broth microdilution method
Enterococcus durans [29] = assay: Antimicrobial activity against Enterococcus durans at <= 0.06 ug/ml by broth microdilution method
Streptococcus [30] = assay: Antimicrobial activity against beta hemolytic Streptococci group G at 0.12 ug/ml by broth microdilution method
Streptococcus sanguinis [31] = assay: Antimicrobial activity against viridans group Streptococcus sanguinis at <= 0.06 ug/ml by broth microdilution method
Corynebacterium sp. [32] = assay: Antimicrobial activity against Corynebacterium spp. at 1 ug/ml by broth microdilution method
Corynebacterium sp. [33] = assay: Antimicrobial activity against Corynebacterium spp. at 0.25 ug/ml by broth microdilution method
Streptococcus mutans [34] = assay: Antimicrobial activity against viridans group Streptococcus mutans at 0.5 ug/ml by broth microdilution method
Bacillus cereus = assay: Antimicrobial activity against Bacillus cereus at 0.5 ug/ml by broth microdilution method
Enterococcus durans [35] = assay: Antimicrobial activity against Enterococcus durans by broth microdilution method
Streptococcus mutans [36] = assay: Antimicrobial activity against viridans group Streptococcus mutans at 0.12 ug/ml by broth microdilution method
Enterococcus gallinarum [37] = assay: Antimicrobial activity against Enterococcus gallinarum at 4 ug/ml by broth microdilution method
[38] = test system: Streptococcus intermedius; assay: Antimicrobial activity against viridans group Streptococcus intermedius at <= 0.06 ug/ml by broth microdilution method
Enterococcus raffinosus = assay: Antimicrobial activity against Enterococcus raffinosus at <= 0.06 ug/ml by broth microdilution method
Bacillus sp. = assay: Antimicrobial activity against Bacillus spp. at 0.5 ug/ml by broth microdilution method; conditions: Bacillus sp. (in: firmicutes)
[39] = test system: Streptococcus intermedius; assay: Antimicrobial activity against viridans group Streptococcus intermedius by broth microdilution method
Enterococcus hirae [40] = assay: Antimicrobial activity against Enterococcus hirae at 0.12 ug/ml by broth microdilution method
Corynebacterium sp. [41] = assay: Antimicrobial activity against Corynebacterium spp. at 0.12 ug/ml by broth microdilution method
Enterococcus hirae [42] = assay: Antimicrobial activity against Enterococcus hirae at 2 ug/ml by broth microdilution method
Streptococcus mutans [43] = assay: Antimicrobial activity against viridans group Streptococcus mutans at 1 ug/ml by broth microdilution method
Enterococcus durans [44] = assay: Antimicrobial activity against Enterococcus durans at 1 ug/ml by broth microdilution method
Enterococcus gallinarum [45] = assay: Antimicrobial activity against Enterococcus gallinarum at <= 0.06 ug/ml by broth microdilution method
[46] = test system: Streptococcus intermedius; assay: Antimicrobial activity against viridans group Streptococcus intermedius at 0.12 ug/ml by broth microdilution method
[47] = test system: Streptococcus constellatus; assay: Antimicrobial activity against viridans group Streptococcus constellatus by broth microdilution method
[48] = test system: Streptococcus constellatus; assay: Antimicrobial activity against viridans group Streptococcus constellatus at 0.12 ug/ml by broth microdilution method

CC(=O)NC[C@H]1CN(c2ccc(N3CCOCC3)c(F)c2)C(=O)O1 [LINEZOLID]
inhibition at 0.25 µg/mL [1]: 0%
inhibition at 0.25 µg/mL (Streptococcus sanguinis [2]): 4.2%
inhibition at 1 µg/mL (Streptococcus salivarius [3]): 98.9%
inhibition at 0.12 µg/mL (Streptococcus mitis): 1.2%
inhibition at 0.25 µg/mL [4]: 100%
inhibition at 0.5 µg/mL [5]: 57.1%
inhibition at 2 µg/mL (Aerococcus [6]): 100%
inhibition at 1 µg/mL [7]: 23.1%
MIC50 [8]: 0.5 µg/mL (≈ 1.48 µM)
MIC90 [8]: 0.5 µg/mL (≈ 1.48 µM)
inhibition at 0.25 µg/mL (Micrococcus luteus [9]): 3.4%
inhibition at 0.12 µg/mL [10]: 0%
Inhibition (Streptococcus anginosus [11]): 2.9%
inhibition at 2 µg/mL (Streptococcus salivarius [12]): 100%
MIC50 (Corynebacterium striatum): 0.25 µg/mL (≈ 0.741 µM)
MIC90 (Corynebacterium striatum): 0.5 µg/mL (≈ 1.48 µM)
inhibition at 0.12 µg/mL (Streptococcus gordonii [13]): 0%
inhibition at 0.25 µg/mL (Streptococcus oralis): 3.6%
inhibition at 1 µg/mL (Aerococcus [14]): 63.6%
inhibition at 0.5 µg/mL (Corynebacterium jeikeium [15]): 98.3%
inhibition at 0.12 µg/mL (Streptococcus anginosus [16]): 2.9%
MIC50 (Streptococcus mutans [17]): 1 µg/mL (≈ 2.96 µM)
MIC90 (Streptococcus mutans [17]): 2 µg/mL (≈ 5.93 µM)
Inhibition [18]: 0%
Inhibition (Streptococcus gordonii [19]): 0%
inhibition at 1 µg/mL (Corynebacterium jeikeium [20]): 100%
MIC50 (Micrococcus luteus [21]): 0.5 µg/mL (≈ 1.48 µM)
MIC90 (Micrococcus luteus [21]): 1 µg/mL (≈ 2.96 µM)
inhibition at 0.5 µg/mL (Aerococcus [22]): 31.8%
inhibition at 1 µg/mL [23]: 100%
Inhibition (Streptococcus [24]): 0%
Inhibition (Streptococcus [25]): 1.5%
inhibition at 1 µg/mL (Enterococcus gallinarum [26]): 30.3%
inhibition at 2 µg/mL (Streptococcus anginosus [27]): 100%
inhibition at 2 µg/mL [28]: 100%
inhibition at 0.5 µg/mL (Enterococcus avium): 4.3%
Inhibition (Enterococcus durans [29]): 0%
inhibition at 0.12 µg/mL (Streptococcus [30]): 0.5%
Inhibition (Streptococcus sanguinis [31]): 0%
inhibition at 1 µg/mL (Corynebacterium sp. [32]): 99.6%
inhibition at 0.25 µg/mL (Corynebacterium sp. [33]): 68.2%
inhibition at 0.5 µg/mL (Streptococcus mutans [34]): 36.8%
inhibition at 0.5 µg/mL (Bacillus cereus): 30%
MIC50 (Enterococcus durans [35]): 2 µg/mL (≈ 5.93 µM)
MIC90 (Enterococcus durans [35]): 2 µg/mL (≈ 5.93 µM)
inhibition at 0.12 µg/mL (Streptococcus mutans [36]): 0%
inhibition at 4 µg/mL (Enterococcus gallinarum [37]): 100%
Inhibition [38]: 0%
Inhibition (Enterococcus raffinosus): 0%
inhibition at 0.5 µg/mL (Bacillus sp.): 31.7%
MIC50 [39]: 1 µg/mL (≈ 2.96 µM)
MIC90 [39]: 2 µg/mL (≈ 5.93 µM)
inhibition at 0.12 µg/mL (Enterococcus hirae [40]): 0%
inhibition at 0.12 µg/mL (Corynebacterium sp. [41]): 13.6%
inhibition at 2 µg/mL (Enterococcus hirae [42]): 100%
inhibition at 1 µg/mL (Streptococcus mutans [43]): 89.5%
inhibition at 1 µg/mL (Enterococcus durans [44]): 32.7%
Inhibition (Enterococcus gallinarum [45]): 0%
inhibition at 0.12 µg/mL [46]: 0%
MIC50 [47]: 1 µg/mL (≈ 2.96 µM)
MIC90 [47]: 1 µg/mL (≈ 2.96 µM)
inhibition at 0.12 µg/mL [48]: 3.4%
